US20090155209A1, “NOVEL MACROCYCLIC INHIBITORS OF HEPATITIS C VIRUS REPLICATION” (priority 2007, published 2009)

How the values were obtained:
NS3-NS4 [1] = molecular target: T1, NS3-NS4 (Hepatitis C virus genotype 1a, UniProt P27958); assay: NS3-NS4 activity, IC50 (Example 37, Table 8); assay type: biochemical
NS3-NS4 [2] = molecular target: T1, NS3-NS4; assay: cell-based; conditions: EC50, NS3-NS4 activity

T1 sequence (P27958 1027-1657): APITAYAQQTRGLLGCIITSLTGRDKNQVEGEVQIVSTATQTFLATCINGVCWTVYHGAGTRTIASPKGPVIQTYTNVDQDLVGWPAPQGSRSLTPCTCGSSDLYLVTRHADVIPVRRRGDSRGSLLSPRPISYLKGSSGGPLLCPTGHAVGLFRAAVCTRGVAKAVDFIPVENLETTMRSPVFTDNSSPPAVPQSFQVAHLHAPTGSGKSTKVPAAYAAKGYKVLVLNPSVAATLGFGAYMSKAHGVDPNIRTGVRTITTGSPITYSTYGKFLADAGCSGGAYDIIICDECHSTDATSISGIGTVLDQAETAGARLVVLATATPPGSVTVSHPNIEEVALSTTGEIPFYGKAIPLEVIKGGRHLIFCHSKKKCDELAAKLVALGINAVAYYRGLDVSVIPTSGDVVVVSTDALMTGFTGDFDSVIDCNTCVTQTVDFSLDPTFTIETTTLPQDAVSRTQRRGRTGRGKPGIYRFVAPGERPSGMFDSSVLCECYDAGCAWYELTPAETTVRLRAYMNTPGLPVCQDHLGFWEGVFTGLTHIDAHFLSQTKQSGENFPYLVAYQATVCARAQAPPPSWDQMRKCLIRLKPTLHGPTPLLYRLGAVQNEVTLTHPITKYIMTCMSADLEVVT
T1 sequence (P27958 1658-1711): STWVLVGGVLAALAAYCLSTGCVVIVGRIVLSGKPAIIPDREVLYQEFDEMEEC

SMILES	IC50 (NS3-NS4 [1]) [nM]	EC50 (NS3-NS4 [2]) [nM]
Cc1csc(N[C@H]2CCCCC/C=C\[C@@H]3C[C@@]3(C(=O)NS(=O)(=O)C3CC3)NC(=O)[C@@H]3C[C@@H](OC(=O)N4Cc5cccc(F)c5C4)CN3C2=O)n1 [Compound 227]	< 100	< 100
CC(C)(C)OC(=O)N[C@H]1CCOCC/C=C\[C@@H]2C[C@@]2(C(=O)NS(=O)(=O)c2ccc(Cl)cc2)NC(=O)[C@@H]2C[C@@H](OC(=O)N3Cc4cccc(Cl)c4C3)CN2C1=O [Compound 324, (2R,6S,13aS,14aR,16aSZ)-6-(tert-butoxycarbonylamino)-14a-(4-chlorophenylsulfonylcarbamoyl)-5,16-dioxo-2,3,5,6,7,8,10,11,13a,14,14a,15,16,16a-tetradecahydro-1H-cyclopropa[j]pyrrolo[1,2-f][1,6,9]oxadiazacyclopentadecin-2-yl 4-chloroisoindoline-2-carboxylate]	< 100	< 100
CONC(=O)[C@@]12C[C@H]1/C=C\CCCCC[C@H](NC(=O)OC(C)(C)C)C(=O)N1C[C@H](OC(=O)N3Cc4cccc(F)c4C3)C[C@H]1C(=O)N2 [Compound 104, (2R,6S,13aS,14aR,16aS,Z)-6-(tert-butoxycarbonylamino)-14a-(methoxycarbamoyl)-5,16-dioxo-1,2,3,5,6,7,8,9,10,11,13a,14,14a,15,16,16a-hexadecahydrocyclopropa[e]pyrrolo[1,2-a][1,4]diazacyclopentadecin-2-yl 4-fluoroisoindoline-2-carboxylate]	< 100	1000 to 10000
CC(C)(C)OC(=O)N[C@H]1CCCCC/C=C\[C@@H]2C[C@@]2(C(=O)NS(=O)(=O)c2cc(Cl)cs2)NC(=O)[C@@H]2C[C@@H](OC(=O)N3Cc4cccc(F)c4C3)CN2C1=O [Compound 536]	< 100	< 100
CC(C)(C)O[C@@H]1C[C@H]2C(=O)N[C@]3(C(=O)NS(=O)(=O)C4CC4)C[C@H]3/C=C\CCCCC[C@H](Nc3nc(-c4ccccc4)c(-c4ccccc4)s3)C(=O)N2C1 [Compound 242]	< 100	1000 to 10000
CC(C)(C)OC(=O)N[C@H]1CCCCC/C=C\[C@@H]2C[C@@]2(C(=O)NS(=O)(=O)Cc2ccc(F)cc2)NC(=O)[C@@H]2C[C@@H](OC(=O)N3Cc4cccc(F)c4C3)CN2C1=O [Compound 509]	< 100	100 to 1000
CC(C)(C)OC(=O)N[C@H]1CCCCC/C=C\[C@@H]2C[C@@]2(C(=O)NS(=O)(=O)Cc2cc(F)cc(F)c2)NC(=O)[C@@H]2C[C@@H](OC(=O)N3Cc4cccc(F)c4C3)CN2C1=O [Compound 523]	< 100	100 to 1000
O=C1N[C@]2(C(=O)NS(=O)(=O)C3CC3)C[C@H]2/C=C\CCCCC[C@H](Nc2nc(-c3nc4ccccc4s3)cs2)C(=O)N2C[C@H](OC(=O)N3Cc4cccc(F)c4C3)C[C@@H]12 [Compound 217]	< 100	< 100
CC(C)(C)OC(=O)N[C@H]1CCCCC/C=C\[C@@H]2C[C@@]2(C(=O)NS(=O)(=O)Cc2ccc(Cl)c(Cl)c2)NC(=O)[C@@H]2C[C@@H](OC(=O)N3Cc4cccc(F)c4C3)CN2C1=O [Compound 526]	< 100	100 to 1000
Cc1cnc(N[C@H]2CCCCC/C=C\[C@@H]3C[C@@]3(C(=O)NS(=O)(=O)C3CC3)NC(=O)[C@@H]3C[C@@H](OC(=O)N4Cc5cccc(F)c5C4)CN3C2=O)s1 [Compound 226]	< 100	< 100
O=C1N[C@]2(C(=O)NS(=O)(=O)C3CC3)C[C@H]2/C=C\CCCCC[C@H](NC(=O)N2CCC2)C(=O)N2C[C@H](OC(=O)N3Cc4cccc(F)c4C3)C[C@@H]12 [Compound 417]	< 100	< 100
CC(C)(C)OC(=O)N[C@H]1CCCCCCC[C@@H]2C[C@@]2(C(=O)NS(=O)(=O)c2ccc(Cl)cc2)NC(=O)[C@@H]2C[C@@H](OC(=O)N3Cc4cccc(F)c4C3)CN2C1=O [Compound 604]	< 100	< 100
CN(C(=O)N[C@H]1CCCCC/C=C\[C@@H]2C[C@@]2(C(=O)NS(=O)(=O)C2(C)CC2)NC(=O)[C@@H]2C[C@@H](OC(=O)N3Cc4cccc(F)c4C3)CN2C1=O)C(C)(C)C [Compound 440]	< 100	< 100
CC(C)(C)O[C@@H]1C[C@H]2C(=O)N[C@]3(C(=O)NS(=O)(=O)C4CC4)C[C@H]3/C=C\CCCCC[C@H](Nc3ncc(-c4ccccc4)s3)C(=O)N2C1 [Compound 202, (2R,6S,13aS,14aR,16aS,Z)-2-tert-butoxy-N-(cyclopropylsulfonyl)-5,16-dioxo-6-(5-phenylthiazol-2-ylamino)-1,2,3,5,6,7,8,9,10,11,13a,14,14a,15,16,16a-hexadecahydrocyclopropa[e]pyrrolo[1,2-a][1,4]diazacyclopentadecine-14a-carboxamide]	< 100	100 to 1000
CN(C(=O)N[C@H]1CCCCC/C=C\[C@@H]2C[C@@]2(C(=O)NS(=O)(=O)c2c(Cl)cccc2Cl)NC(=O)[C@@H]2C[C@@H](OC(=O)N3Cc4cccc(F)c4C3)CN2C1=O)C(C)(C)C [Compound 360]	< 100	100 to 1000
CC(C)(C)OC(=O)N[C@H]1CCCCC/C=C\[C@@H]2C[C@@]2(C(=O)NS(=O)(=O)c2cc(Cl)c(Cl)s2)NC(=O)[C@@H]2C[C@@H](OC(=O)N3Cc4cccc(F)c4C3)CN2C1=O [Compound 354]	< 100	100 to 1000

SMILES	IC50 (NS3-NS4 [1]) [nM]	EC50 (NS3-NS4 [2]) [nM]
CC(C)COC(=O)N[C@H]1CCCCC/C=C\[C@@H]2C[C@@]2(C(=O)NS(=O)(=O)c2cc(Cl)sc2Cl)NC(=O)[C@@H]2C[C@@H](OC(=O)N3Cc4cccc(F)c4C3)CN2C1=O [Compound 342]	< 100	< 100
O=C1N[C@]2(C(=O)NS(=O)(=O)C3CC3)C[C@H]2/C=C\CCCCC[C@H](Nc2nc(-c3ccc(F)cc3)cs2)C(=O)N2C[C@H](Oc3nc(-c4ccccc4)nc4ccccc34)C[C@@H]12 [Compound 204, (2R,6S,13aS,14aR,16aS,Z)-N-(cyclopropylsulfonyl)-6-(4-(4-fluorophenyl)thiazol-2-ylamino)-5,16-dioxo-2-(2-phenylquinazolin-4-yloxy)-1,2,3,5,6,7,8,9,10,11,13a,14,14a,15,16,16a-hexadecahydrocyclopropa[e]pyrrolo[1,2-a][1,4]diazacyclopentadecine-14a-carboxamide]	< 100	< 100
CC(C)(C)OC(=O)N[C@H]1CCCCC/C=C\[C@@H]2C[C@@]2(C(=O)NS(=O)(=O)Cc2ccc(Cl)cc2Cl)NC(=O)[C@@H]2C[C@@H](OC(=O)N3Cc4cccc(F)c4C3)CN2C1=O [Compound 524]	< 100	100 to 1000
CC(C)(C)OC(=O)N[C@H]1CCCCC/C=C\[C@@H]2C[C@@]2(C(=O)NOc2cccc(C(F)(F)F)c2)NC(=O)[C@@H]2C[C@@H](OC(=O)N3Cc4cccc(F)c4C3)CN2C1=O [Compound 709]	< 100	1000 to 10000
CC(C)(C)OC(=O)N[C@H]1CCCCC/C=C\[C@@H]2C[C@@]2(C(=O)NS(=O)(=O)c2cc(F)cc(F)c2)NC(=O)[C@@H]2C[C@@H](OC(=O)N3Cc4cccc(F)c4C3)CN2C1=O [Compound 309]	< 100	< 100
COc1ccc(S(=O)(=O)NC(=O)[C@@]23C[C@H]2CCCCCCC[C@H](NC(=O)OC(C)(C)C)C(=O)N2C[C@H](OC(=O)N4Cc5cccc(F)c5C4)C[C@H]2C(=O)N3)cn1 [Compound 638]	< 100	< 100
CC(C)ONC(=O)[C@@]12C[C@H]1/C=C\CCCCC[C@H](NC(=O)OC(C)(C)C)C(=O)N1C[C@H](OC(=O)N3Cc4cccc(F)c4C3)C[C@H]1C(=O)N2 [Compound 718]	< 100	< 100
CC(C)(C)OC(=O)N[C@H]1CCCCC/C=C\[C@@H]2C[C@@]2(C(=O)NS(=O)(=O)c2ccc(F)cc2)NC(=O)[C@@H]2C[C@@H](OC(=O)N3Cc4cccc(F)c4C3)CN2C1=O [Compound 351]	< 100	< 100
Cc1cccc(ONC(=O)[C@@]23C[C@H]2/C=C\CCCCC[C@H](NC(=O)OC(C)(C)C)C(=O)N2C[C@H](OC(=O)N4Cc5cccc(F)c5C4)C[C@H]2C(=O)N3)c1C [Compound 712]	< 100	1000 to 10000
CC(C)(C)OC(=O)N[C@H]1CCCCC/C=C\[C@@H]2C[C@@]2(C(=O)NOCCO)NC(=O)[C@@H]2C[C@@H](OC(=O)N3Cc4cccc(F)c4C3)CN2C1=O [Compound 106]	< 100	100 to 1000
O=C1N[C@]2(C(=O)NS(=O)(=O)C3CC3)C[C@H]2/C=C\CCCCC[C@H](Nc2nc(-c3ccc(Cl)cc3)cs2)C(=O)N2C[C@H](OC(=O)N3Cc4cccc(F)c4C3)C[C@@H]12 [Compound 207]	< 100	< 100
O=C(N[C@H]1CCCCC/C=C\[C@@H]2C[C@@]2(C(=O)NS(=O)(=O)C2CC2)NC(=O)[C@@H]2C[C@@H](OC(=O)N3Cc4cccc(F)c4C3)CN2C1=O)OCC1CC1 [Compound 434]	< 100	< 100
CC(C)(C)OC(=O)N[C@H]1CCCCC/C=C\[C@@H]2C[C@@]2(C(=O)NOc2cccc(F)c2)NC(=O)[C@@H]2C[C@@H](OC(=O)N3Cc4cccc(F)c4C3)CN2C1=O [Compound 704]	< 100	1000 to 10000
O=C1N[C@]2(C(=O)NS(=O)(=O)C3CC3)C[C@H]2/C=C\CCCCC[C@H](Nc2nc(-c3ccncc3)cs2)C(=O)N2C[C@H](OC(=O)N3Cc4cccc(F)c4C3)C[C@@H]12 [Compound 210]	< 100	< 100
CCC(C)(C)OC(=O)N[C@H]1CCOCC/C=C\[C@@H]2C[C@@]2(C(=O)NS(=O)(=O)c2ccc(Cl)cc2)NC(=O)[C@@H]2C[C@@H](OC(=O)N3Cc4cccc(Cl)c4C3)CN2C1=O [Compound 325, (2R,6S,13aS,14aR,16aS,Z)-14a-(4-chlorophenylsulfonylcarbamoyl)-5,16-dioxo-6-(tert-pentyloxycarbonylamino)-2,3,5,6,7,8,10,11,13a,14,14a,15,16,16a-tetradecahydro-1H-cyclopropa[j]pyrrolo[1,2-f][1,6,9]oxadiazacyclopentadecin-2-yl 4-chloroisoindoline-2-carboxylate]	< 100	< 100
CC(C)(C)OC(=O)N[C@H]1CCCCC/C=C\[C@@H]2C[C@@]2(C(=O)NS(=O)(=O)c2ccc(C(F)(F)F)cc2)NC(=O)[C@@H]2C[C@@H](OC(=O)N3Cc4cccc(F)c4C3)CN2C1=O [Compound 347]	< 100	< 100
